Columns and labels:
[1] = anaerostipes sp., 12 h, 2 µM
Description: The drug is tested on Anaerostipes sp. strain: fecal isolate for biotransformation. The drug concentrations were measured before and after a 12-h incubation by liquid-chromatography-coupled mass spectrometry (LC–MS)

[2] = bacteroides fragilis, 12 h, 2 µM
Description: The drug is tested on Bacteroides fragilis strain: 3397 (T10) for biotransformation. The drug concentrations were measured before and after a 12-h incubation by liquid-chromatography-coupled mass spectrometry (LC–MS)

[3] = The drug is tested on Bacteroides caccae strain: ATCC43185 for biotransformation. The drug concentrations were measured before and after a 12-h incubation by liquid-chromatography-coupled mass spectrometry (LC–MS); settings: 2 µM
[4] = The drug is tested on Providencia rettgeri strain: DSM1131 for biotransformation. The drug concentrations were measured before and after a 12-h incubation by liquid-chromatography-coupled mass spectrometry (LC–MS); type: ADME; design: dose 2 uM, timepoint 0 vs 12 hours; settings: 2 µM
[5] = segatella copri, 12 h, 2 µM
Description: The drug is tested on Prevotella copri strain: DSM18205 for biotransformation. The drug concentrations were measured before and after a 12-h incubation by liquid-chromatography-coupled mass spectrometry (LC–MS)

[6] = The drug is tested on Collinsella intestinalis strain: DSM13280 for biotransformation. The drug concentrations were measured before and after a 12-h incubation by liquid-chromatography-coupled mass spectrometry (LC–MS); settings: 2 µM
[7] = The drug is tested on Subdoligranulum variabile strain: DSM15176 for biotransformation. The drug concentrations were measured before and after a 12-h incubation by liquid-chromatography-coupled mass spectrometry (LC–MS); settings: 2 µM
[8] = The drug is tested on Clostridium sp. strain: fecal isolate for biotransformation. The drug concentrations were measured before and after a 12-h incubation by liquid-chromatography-coupled mass spectrometry (LC–MS); settings: 2 µM
[9] = bacteroides fragilis, 12 h, 2 µM; remark: listed apart in the source
Description: The drug is tested on Bacteroides fragilis strain: NCTC 9343 for biotransformation. The drug concentrations were measured before and after a 12-h incubation by liquid-chromatography-coupled mass spectrometry (LC–MS)

[10] = The drug is tested on Providencia stuartii strain: ATCC25827 for biotransformation. The drug concentrations were measured before and after a 12-h incubation by liquid-chromatography-coupled mass spectrometry (LC–MS); settings: 2 µM
[11] = The drug is tested on Dorea formicigenerans strain: ATCC27755 for biotransformation. The drug concentrations were measured before and after a 12-h incubation by liquid-chromatography-coupled mass spectrometry (LC–MS); settings: 2 µM
[12] = The drug is tested on Ruminococcus torques strain: ATCC27756 for biotransformation. The drug concentrations were measured before and after a 12-h incubation by liquid-chromatography-coupled mass spectrometry (LC–MS); type: ADME; design: dose 2 uM, timepoint 0 vs 12 hours; settings: 2 µM
[13] = parabacteroides johnsonii, 12 h, 2 µM
Description: The drug is tested on Parabacteroides johnsonii strain: DSM18315 for biotransformation. The drug concentrations were measured before and after a 12-h incubation by liquid-chromatography-coupled mass spectrometry (LC–MS)

[14] = The drug is tested on Clostridium sporogenes strain: ATCC15579 for biotransformation. The drug concentrations were measured before and after a 12-h incubation by liquid-chromatography-coupled mass spectrometry (LC–MS); settings: 2 µM
[15] = The drug is tested on Bacteroides fragilis strain: HMW610 for biotransformation. The drug concentrations were measured before and after a 12-h incubation by liquid-chromatography-coupled mass spectrometry (LC–MS); settings: 2 µM
[16] = bacteroides thetaiotaomicron, 12 h, 2 µM
Description: The drug is tested on Bacteroides thetaiotaomicron strain: 3731 for biotransformation. The drug concentrations were measured before and after a 12-h incubation by liquid-chromatography-coupled mass spectrometry (LC–MS)

[17] = akkermansia muciniphila, 12 h, 2 µM
Description: The drug is tested on Akkermansia muciniphila strain: ATCC BAA-835 for biotransformation. The drug concentrations were measured before and after a 12-h incubation by liquid-chromatography-coupled mass spectrometry (LC–MS)

[18] = The drug is tested on Blautia luti strain: DSM14534 for biotransformation. The drug concentrations were measured before and after a 12-h incubation by liquid-chromatography-coupled mass spectrometry (LC–MS); type: ADME; design: dose 2 uM, timepoint 0 vs 12 hours; settings: 2 µM
[19] = The drug is tested on Edwardsiella tarda strain: ATCC23685 for biotransformation. The drug concentrations were measured before and after a 12-h incubation by liquid-chromatography-coupled mass spectrometry (LC–MS); settings: 2 µM
[20] = The drug is tested on Clostridium symbiosum strain: ATCC14940 for biotransformation. The drug concentrations were measured before and after a 12-h incubation by liquid-chromatography-coupled mass spectrometry (LC–MS); settings: 2 µM

CC(=O)Nc1ccc(OC(C)=O)cc1 [DIACETAMATE]
Bacterial Biotransformation [1]: Compound metabolized
Bacterial Biotransformation [2]: Compound metabolized
Bacterial Biotransformation [3]: Compound metabolized
Bacterial Biotransformation [4]: Compound metabolized
Bacterial Biotransformation [5]: Compound metabolized
Bacterial Biotransformation [6]: Compound metabolized
Bacterial Biotransformation [7]: Compound metabolized
Bacterial Biotransformation [8]: Compound NOT metabolized
Bacterial Biotransformation [9]: Compound metabolized
Bacterial Biotransformation [10]: Compound metabolized
Bacterial Biotransformation [11]: Compound metabolized
Bacterial Biotransformation [12]: Compound metabolized
Bacterial Biotransformation [13]: Compound metabolized
Bacterial Biotransformation [14]: Compound metabolized
Bacterial Biotransformation [15]: Compound metabolized
Bacterial Biotransformation [16]: Compound metabolized
Bacterial Biotransformation [17]: Compound metabolized
Bacterial Biotransformation [18]: Compound metabolized
Bacterial Biotransformation [19]: Compound metabolized
Bacterial Biotransformation [20]: Compound metabolized

CC(=O)OCC(=O)[C@@]12N=C(C)O[C@@H]1C[C@H]1[C@@H]3CCC4=CC(=O)C=C[C@]4(C)[C@H]3[C@@H](O)C[C@@]12C [DEFLAZACORT]
Bacterial Biotransformation [1]: Compound metabolized
Bacterial Biotransformation [2]: Compound metabolized
Bacterial Biotransformation [3]: Compound metabolized
Bacterial Biotransformation [4]: Compound metabolized
Bacterial Biotransformation [5]: Compound metabolized
Bacterial Biotransformation [6]: Compound metabolized
Bacterial Biotransformation [7]: Compound metabolized
Bacterial Biotransformation [8]: Compound metabolized
Bacterial Biotransformation [9]: Compound metabolized
Bacterial Biotransformation [10]: Compound metabolized
Bacterial Biotransformation [11]: Compound metabolized
Bacterial Biotransformation [12]: Compound metabolized
Bacterial Biotransformation [13]: Compound metabolized
Bacterial Biotransformation [14]: Compound metabolized
Bacterial Biotransformation [15]: Compound metabolized
Bacterial Biotransformation [16]: Compound metabolized
Bacterial Biotransformation [17]: Compound metabolized
Bacterial Biotransformation [18]: Compound metabolized
Bacterial Biotransformation [19]: Compound metabolized
Bacterial Biotransformation [20]: Compound metabolized

COc1ccccc1OCCNCC(O)COc1cccc2[nH]c3ccccc3c12 (stereo not given) [CARVEDILOL]
Bacterial Biotransformation [1]: Compound metabolized
Bacterial Biotransformation [2]: Compound NOT metabolized
Bacterial Biotransformation [3]: Compound metabolized
Bacterial Biotransformation [4]: Compound NOT metabolized
Bacterial Biotransformation [5]: Compound metabolized
Bacterial Biotransformation [6]: Compound NOT metabolized
Bacterial Biotransformation [7]: Compound NOT metabolized
Bacterial Biotransformation [8]: Compound NOT metabolized
Bacterial Biotransformation [9]: Compound metabolized
Bacterial Biotransformation [10]: Compound metabolized
Bacterial Biotransformation [11]: Compound NOT metabolized
Bacterial Biotransformation [12]: Compound NOT metabolized
Bacterial Biotransformation [13]: Compound metabolized
Bacterial Biotransformation [14]: Compound metabolized
Bacterial Biotransformation [15]: Compound NOT metabolized
Bacterial Biotransformation [16]: Compound metabolized
Bacterial Biotransformation [17]: Compound metabolized
Bacterial Biotransformation [18]: Compound metabolized
Bacterial Biotransformation [19]: Compound NOT metabolized
Bacterial Biotransformation [20]: Compound NOT metabolized

CC(C)(C)NCC(O)c1cc(Cl)c(N)c(Cl)c1 (stereo not given) [CLENBUTEROL]
Bacterial Biotransformation [1]: Compound NOT metabolized
Bacterial Biotransformation [2]: Compound NOT metabolized
Bacterial Biotransformation [3]: Compound NOT metabolized
Bacterial Biotransformation [4]: Compound NOT metabolized
Bacterial Biotransformation [5]: Compound NOT metabolized
Bacterial Biotransformation [6]: Compound NOT metabolized
Bacterial Biotransformation [7]: Compound NOT metabolized
Bacterial Biotransformation [8]: Compound NOT metabolized
Bacterial Biotransformation [9]: Compound NOT metabolized
Bacterial Biotransformation [10]: Compound NOT metabolized
Bacterial Biotransformation [11]: Compound NOT metabolized
Bacterial Biotransformation [12]: Compound NOT metabolized
Bacterial Biotransformation [13]: Compound NOT metabolized
Bacterial Biotransformation [14]: Compound NOT metabolized
Bacterial Biotransformation [15]: Compound NOT metabolized
Bacterial Biotransformation [16]: Compound NOT metabolized
Bacterial Biotransformation [17]: Compound NOT metabolized
Bacterial Biotransformation [18]: Compound NOT metabolized
Bacterial Biotransformation [19]: Compound NOT metabolized
Bacterial Biotransformation [20]: Compound NOT metabolized

CCOC(=O)C1=C(C)NC(C)=C(C(=O)OC)C1c1cccc([N+](=O)[O-])c1 (stereo not given) [NITRENDIPINE]
Bacterial Biotransformation [1]: Compound metabolized
Bacterial Biotransformation [2]: Compound metabolized
Bacterial Biotransformation [3]: Compound metabolized
Bacterial Biotransformation [4]: Compound metabolized
Bacterial Biotransformation [5]: Compound metabolized
Bacterial Biotransformation [6]: Compound metabolized
Bacterial Biotransformation [7]: Compound metabolized
Bacterial Biotransformation [8]: Compound metabolized
Bacterial Biotransformation [9]: Compound metabolized
Bacterial Biotransformation [10]: Compound NOT metabolized
Bacterial Biotransformation [11]: Compound metabolized
Bacterial Biotransformation [12]: Compound metabolized
Bacterial Biotransformation [13]: Compound metabolized
Bacterial Biotransformation [14]: Compound metabolized
Bacterial Biotransformation [15]: Compound metabolized
Bacterial Biotransformation [16]: Compound metabolized
Bacterial Biotransformation [17]: Compound metabolized
Bacterial Biotransformation [18]: Compound metabolized
Bacterial Biotransformation [19]: Compound metabolized
Bacterial Biotransformation [20]: Compound metabolized

COc1c(C)c2c(c(O)c1C/C=C(\C)CCC(=O)OCCN1CCOCC1)C(=O)OC2 [MYCOPHENOLATE MOFETIL]
Bacterial Biotransformation [1]: Compound metabolized
Bacterial Biotransformation [2]: Compound metabolized
Bacterial Biotransformation [3]: Compound metabolized
Bacterial Biotransformation [4]: Compound metabolized
Bacterial Biotransformation [5]: Compound metabolized
Bacterial Biotransformation [6]: Compound metabolized
Bacterial Biotransformation [7]: Compound metabolized
Bacterial Biotransformation [8]: Compound metabolized
Bacterial Biotransformation [9]: Compound metabolized
Bacterial Biotransformation [10]: Compound metabolized
Bacterial Biotransformation [11]: Compound metabolized
Bacterial Biotransformation [12]: Compound metabolized
Bacterial Biotransformation [13]: Compound metabolized
Bacterial Biotransformation [14]: Compound metabolized
Bacterial Biotransformation [15]: Compound metabolized
Bacterial Biotransformation [16]: Compound metabolized
Bacterial Biotransformation [17]: Compound metabolized
Bacterial Biotransformation [18]: Compound metabolized
Bacterial Biotransformation [19]: Compound metabolized
Bacterial Biotransformation [20]: Compound metabolized

From ChEMBL document CHEMBL5303573, “Mapping human microbiome drug metabolism by gut bacteria and their genes” (Nature, 2019)
